The values that follow come from patent US20130331345A1, “PUERARIN HYDRATES, PREPARATION METHODS AND USES THEREOF” (priority 2010, published 2013).

In one experiment the target is T1, ACE (Rattus norvegicus, UniProt P47820).
T1 construct: from tissue; host or cells: blood serum of Wistar rats
T1 sequence (P47820 36-1313): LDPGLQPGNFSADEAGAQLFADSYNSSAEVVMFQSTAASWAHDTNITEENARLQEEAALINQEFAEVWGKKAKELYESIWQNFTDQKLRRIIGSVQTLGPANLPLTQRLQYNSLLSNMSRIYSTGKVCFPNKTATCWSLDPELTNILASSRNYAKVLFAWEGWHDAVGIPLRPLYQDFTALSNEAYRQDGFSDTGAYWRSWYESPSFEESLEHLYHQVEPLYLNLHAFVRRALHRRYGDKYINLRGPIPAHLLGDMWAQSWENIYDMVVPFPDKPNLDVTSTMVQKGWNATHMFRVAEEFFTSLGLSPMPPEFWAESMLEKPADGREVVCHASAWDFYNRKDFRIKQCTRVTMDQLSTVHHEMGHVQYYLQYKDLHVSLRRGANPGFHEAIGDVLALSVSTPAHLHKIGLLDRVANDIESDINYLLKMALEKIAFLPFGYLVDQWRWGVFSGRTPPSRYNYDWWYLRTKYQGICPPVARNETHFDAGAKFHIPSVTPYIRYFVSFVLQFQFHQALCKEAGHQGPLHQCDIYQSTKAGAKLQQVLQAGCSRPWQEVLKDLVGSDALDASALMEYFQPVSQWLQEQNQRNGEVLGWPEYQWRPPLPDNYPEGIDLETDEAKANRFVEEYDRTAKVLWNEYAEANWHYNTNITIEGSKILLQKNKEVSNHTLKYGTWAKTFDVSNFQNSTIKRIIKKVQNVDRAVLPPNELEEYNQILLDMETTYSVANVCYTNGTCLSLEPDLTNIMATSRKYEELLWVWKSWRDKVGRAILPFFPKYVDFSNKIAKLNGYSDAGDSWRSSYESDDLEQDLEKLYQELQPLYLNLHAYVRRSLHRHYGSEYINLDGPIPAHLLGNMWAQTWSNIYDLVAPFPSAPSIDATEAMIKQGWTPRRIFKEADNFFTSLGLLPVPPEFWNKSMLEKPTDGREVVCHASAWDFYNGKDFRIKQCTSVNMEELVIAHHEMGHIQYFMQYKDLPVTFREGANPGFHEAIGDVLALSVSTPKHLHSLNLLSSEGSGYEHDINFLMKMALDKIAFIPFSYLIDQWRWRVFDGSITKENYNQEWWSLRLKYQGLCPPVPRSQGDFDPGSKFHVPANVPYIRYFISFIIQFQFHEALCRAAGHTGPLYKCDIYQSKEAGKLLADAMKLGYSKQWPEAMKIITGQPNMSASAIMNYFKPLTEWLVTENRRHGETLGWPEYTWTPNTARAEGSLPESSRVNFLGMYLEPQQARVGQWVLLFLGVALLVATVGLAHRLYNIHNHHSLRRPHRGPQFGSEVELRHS
In words: Effects on inhibiting ACE activity (rat blood serum after intraperitoneal injection). Format: in vivo, Wistar rats. The protocol: 24 Wistar rats, 280-300 g, were randomly divided into 3 groups, 8 rats per group, one group was control group, other two groups were separately 100 mg/kg, 200 mg/kg dose groups (which was added with cosolvent to form an injectable solution), subjected to intraperitoneal injection, the control group was administered with physiological saline. 60 min after administration, the rats were anesthetized with 1% pentobarbital sodium, subjected to thoracotomy and blood sample was taken from heart, the blood sample stood at room temperature for 30 min, centrifuged under 3500 r/min at low temperature for 10 min, the supernatant was taken and stored at about −65° C., for test. Measurement of ACE activity: referring to document [WANG, Fumin, et al, Chinese Journal of Laboratory Medicine, 1983, 6(3):145-151], the results were subjected to statistical treatment: the results were expressed in x±S, and data were subjected to analysis of variance and t-test.

Experiment [1] concerns cerebral ischemia-reperfusion. In words: Effects on cerebral ischemia-reperfusion in rats (NO, NOS, MDA, SOD in brain tissue). To be noted: rats after ischemia-reperfusion, 400 mg/kg intragastric twice per day, monohydrate. The class given is in vivo, Wistar male rats. The protocol:
36 Wistar male rats, body weight 250-300 g, were randomly divided into 3 groups: sham operation group, ischemia-reperfusion group, and the present invention drug group, 12 rats per group. The rats of the present invention drug group were intragastrically administered with physiological saline suspension of puerarin monohydrate (prepared by method of Example 1) in a dose of 400 mg/kg, volume of 2 ml, twice per day, for consecutive 7 days, and cerebral ischemia operation was performed 60 min after the last administration; the rats of sham operation group and the ischemia-reperfusion group were administered separately with isometric physiological saline 2 ml.
The rats were anesthetized with 10% chloral hydrate (3.5 ml/kg) by intraperitoneal injection, fixed at supine position, and molded by a modified Zea Longa suture method referring to document (Journal of Shanghai Jiaotong University (medical Science), 2007, 27(10): 1218-1222); suture was inserted only 10 mm in sham operation group, and the other steps were the same as the model groups. […] After successful modeling, the rats of the present invention drug group were administered twice per day in the same dose as above, while those of the sham operation group and the ischemia-reperfusion group were administered isometric physiological saline 2 ml. Sutures were drawn out 2 hours after modeling, the rats were executed 24 hours after reperfusion, and their brain weights were measured rapidly. 10% brain tissue homogenates were prepared at low temperature with physiological saline, centrifuged under 3000 r/min for 10 min at low temperature, the deposit was discarded, and the supernatant was taken and measured with commercial kits of SOD, MDA, NO, NOS according to their specifications to determine contents or activities of SOD, MDA, NO, NOS.

[2] abbreviates: listed as The present invention drug.
Where [3] appears, read: listed as the present invention drug.

Take `O=c1c(-c2ccc(O)cc2)coc2c([C@@H]3O[C@H](CO)[C@@H](O)[C@H](O)[C@H]3O)c(O)ccc12` [Sample 1, puerarin monohydrate]: the “rat blood serum ACE activity compared with the control group” value at ACE (100 and 200 mg/kg intraperitoneal, P<0.01) is reported as “dose-dependent decrease”. Moreover, the inhibition at 100 mg/kg at ACE (rat, ip, rats, 100 mg/kg intraperitoneal, vs control group, read-out: inhibition rate (%)) came to 36.1%. Also, the “ACE (IU)” value on ACE (rats, 100 mg/kg intraperitoneal, blood taken 60 min after administration) was 34.8 ± 6.19 IU. In experiment [1] (setting [2]), the “MDA in brain tissue” value stood at 2.54 ± 0.57 nmol/mL, the “NO in brain tissue” value was 26 ± 6.13 µmol/L, the “NOS in brain tissue” value is on record as 23 ± 5.22 U/ml and the “SOD in brain tissue” value stood at 243 ± 19.66 U/ml. In addition, in experiment [1] (setting [3]), the “MDA in brain tissue” value is “significantly decreased”, the “NO in brain tissue” value is “significantly decreased”, the “NOS in brain tissue” value is “decreased” and the “SOD in brain tissue” value is given as “increased significantly”.
